Data taken from the NIST ThermoML archive (doi:10.1016/j.jct.2018.02.022).
± gives the expanded uncertainty stated by the source.

Experiment: xn = mol fraction of the nth substance listed
Conditions: 293.15 K, 92.3 kPa, Liquid; for viscosity: Concentric cylinders viscometry; for speed of sound: Frequency=3 MHz, Single path-length method; for mass density: Vibrating tube method

OCCOCCOCCO [triethylene glycol] + O
Conditions	mass density [kg/m3]	speed of sound [m/s]	viscosity [mPa·s]
x1 = 0.0101	1009.83 ± 3.2	1526.7 ± 1.8	–
x1 = 0.0196	1019.71 ± 3.2	1563.3 ± 1.8	–
x1 = 0.025	1024.91 ± 3.2	–	1.881 ± 0.26
x1 = 0.029	1028.88 ± 3.2	1595.7 ± 1.8	–
x1 = 0.0381	1036.74 ± 3.2	1622.5 ± 1.8	–
x1 = 0.0489	1044.89 ± 3.3	–	2.921 ± 0.41
x1 = 0.0496	1045.76 ± 3.3	1651.6 ± 1.8	–
x1 = 0.0601	1053.18 ± 3.3	1673.8 ± 1.8	–
x1 = 0.0689	1058.69 ± 3.3	1689 ± 1.8	–
x1 = 0.0754	1062.23 ± 3.3	–	4.368 ± 0.61
x1 = 0.0801	1065 ± 3.3	1704.9 ± 1.8	–
x1 = 0.0905	1070.23 ± 3.3	1716.5 ± 1.8	–
x1 = 0.0993	1074.35 ± 3.3	–	5.989 ± 0.84
x1 = 0.0996	1074.38 ± 3.3	1724.7 ± 1.8	–
x1 = 0.1479	1090.64 ± 3.3	1744.5 ± 1.8	–
x1 = 0.15	1091.94 ± 3.3	–	10.19 ± 1.4
x1 = 0.1993	1101.82 ± 3.3	–	14.46 ± 2
x1 = 0.2004	1101.27 ± 3.3	1742 ± 1.8	–
x1 = 0.2462	1107.12 ± 3.3	1732.1 ± 1.8	–
x1 = 0.2526	1107.94 ± 3.3	–	19.41 ± 2.7
x1 = 0.2998	1111.26 ± 3.3	–	23.57 ± 3.3
x1 = 0.3004	1111.57 ± 3.3	1718.2 ± 1.8	–
x1 = 0.3474	1114.22 ± 3.3	1706.1 ± 1.8	–
x1 = 0.3539	1113.94 ± 3.3	–	27.83 ± 3.9
x1 = 0.3948	1116.15 ± 3.3	1694.8 ± 1.9	–
x1 = 0.4009	1115.83 ± 3.3	–	31.2 ± 4.4
x1 = 0.4467	1117.71 ± 3.3	1683.9 ± 1.9	–
x1 = 0.4492	1117.53 ± 3.3	–	34.1 ± 4.8
x1 = 0.4992	1119.04 ± 3.3	–	36.67 ± 5.1
x1 = 0.5021	1118.97 ± 3.3	1673.6 ± 1.9	–
x1 = 0.548	1119.77 ± 3.3	1666.3 ± 1.9	–
x1 = 0.5484	1120.2 ± 3.3	–	38.84 ± 5.4
x1 = 0.5923	1120.43 ± 3.3	1660 ± 1.9	–
x1 = 0.5996	1121.03 ± 3.3	–	40.64 ± 5.7
x1 = 0.6442	1121.04 ± 3.3	1653.7 ± 1.9	–
x1 = 0.6506	1121.46 ± 3.3	–	42.15 ± 5.9
x1 = 0.701	1121.62 ± 3.3	–	43.67 ± 6.1
x1 = 0.7095	1121.66 ± 3.3	1647 ± 1.9	–
x1 = 0.7531	1122.03 ± 3.3	1642.9 ± 1.9	–
x1 = 0.7567	1121.7 ± 3.3	–	44.87 ± 6.3
x1 = 0.7859	1122.28 ± 3.3	1640.2 ± 2	–
x1 = 0.8035	1121.91 ± 3.3	–	45.73 ± 6.4
x1 = 0.8387	1122.62 ± 3.3	1636.5 ± 2	–
x1 = 0.8406	1122.25 ± 3.3	–	46.36 ± 6.5
x1 = 0.8981	1123.02 ± 3.3	–	46.96 ± 6.6
x1 = 0.9031	1123.01 ± 3.3	1632.1 ± 2	–
x1 = 0.9181	1123.08 ± 3.3	1631.3 ± 2	–
x1 = 0.9344	1123.16 ± 3.3	1630.5 ± 2	–
x1 = 0.9489	1123.57 ± 3.3	–	47.64 ± 6.7
x1 = 0.9569	1123.28 ± 3.3	1629.2 ± 2	–
x1 = 0.9782	1123.37 ± 3.3	1628.1 ± 2	–
x1 = 1	1123.48 ± 3	1626.8 ± 2	48.06 ± 6.7
